Experimental data reported in ChEMBL document CHEMBL4507303, “Data for DCP probe TP-004” (2021).
The source made the active and inactive calls. The calls are words filed in the database; no cut-off is given here.

How the values were obtained:
[1] = system: Mast/stem cell growth factor receptor Kit (Homo sapiens), P10721 [A829P]; conditions: Compound concentration 1000.0 nM
[2] = system: Receptor-type tyrosine-protein kinase FLT3 (Homo sapiens), P36888 [D835H]; conditions: Compound concentration 1000.0 nM
[3] = molecular target: Calcium-dependent protein kinase 1 (Plasmodium falciparum) (UniProt P62344); conditions: Compound concentration 1000.0 nM
Chain of Calcium-dependent protein kinase 1 (Plasmodium falciparum) (P62344 2-524 limits assumed): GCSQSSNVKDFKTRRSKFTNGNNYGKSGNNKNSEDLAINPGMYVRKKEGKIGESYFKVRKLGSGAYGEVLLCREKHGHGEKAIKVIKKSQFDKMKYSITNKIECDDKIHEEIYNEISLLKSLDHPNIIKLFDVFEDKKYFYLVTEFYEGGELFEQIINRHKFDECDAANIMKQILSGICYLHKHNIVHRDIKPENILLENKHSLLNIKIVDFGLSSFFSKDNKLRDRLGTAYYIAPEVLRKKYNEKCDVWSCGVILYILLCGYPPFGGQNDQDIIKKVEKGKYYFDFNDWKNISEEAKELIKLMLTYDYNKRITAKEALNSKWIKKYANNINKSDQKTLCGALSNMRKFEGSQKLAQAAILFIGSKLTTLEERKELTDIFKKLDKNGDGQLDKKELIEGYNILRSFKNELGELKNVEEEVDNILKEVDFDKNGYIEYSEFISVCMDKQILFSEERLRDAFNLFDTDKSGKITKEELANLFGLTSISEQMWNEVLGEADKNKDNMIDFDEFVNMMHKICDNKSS

[4] = molecular target: Rhodopsin kinase GRK1 (Homo sapiens) (UniProt Q15835); conditions: Compound concentration 1000.0 nM
[5] = molecular target: Serine/threonine-protein kinase MRCK gamma (Homo sapiens) (UniProt Q6DT37); conditions: Compound concentration 1000.0 nM
[6] = system: Epidermal growth factor receptor (Homo sapiens), P00533 [UNDEFINED MUTATION]; conditions: Compound concentration 1000.0 nM
[7] = molecular target: Cyclin-dependent kinase 4 (Homo sapiens) (UniProt P11802); conditions: Compound concentration 1000.0 nM
Chain of Cyclin-dependent kinase 4 (Homo sapiens) (P11802 whole entry): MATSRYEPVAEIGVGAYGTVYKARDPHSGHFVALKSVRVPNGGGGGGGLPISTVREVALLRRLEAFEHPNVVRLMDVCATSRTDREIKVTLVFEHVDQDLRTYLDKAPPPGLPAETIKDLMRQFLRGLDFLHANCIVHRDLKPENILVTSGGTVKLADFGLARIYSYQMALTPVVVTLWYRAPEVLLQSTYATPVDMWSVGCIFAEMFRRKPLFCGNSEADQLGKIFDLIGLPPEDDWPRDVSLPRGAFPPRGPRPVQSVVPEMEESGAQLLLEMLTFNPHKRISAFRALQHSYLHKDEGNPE

[8] = system: Tyrosine-protein kinase ABL1 (Homo sapiens), P00519 [F317I]; conditions: Compound concentration 1000.0 nM
[9] = molecular target: Ribosomal protein S6 kinase alpha-3 (Homo sapiens) (UniProt P51812); conditions: Compound concentration 1000.0 nM
[10] = molecular target: Tyrosine-protein kinase Srms (Homo sapiens) (UniProt Q9H3Y6); conditions: Compound concentration 1000.0 nM
[11] = molecular target: Serine/threonine-protein kinase TAO2 (Homo sapiens) (UniProt Q9UL54); conditions: Compound concentration 1000.0 nM
[12] = molecular target: Methionine aminopeptidase 2 (Homo sapiens, UniProt P50579); experiment: Biochemical activity-MetAP2 using Co
[13] = molecular target: Mu-type opioid receptor (Homo sapiens) (UniProt P35372); conditions: Compound concentration 10.0 uM
[14] = molecular target: Microtubule-associated serine/threonine-protein kinase 1 (Homo sapiens) (UniProt Q9Y2H9); conditions: Compound concentration 1000.0 nM
[15] = molecular target: Serine/threonine-protein kinase Nek7 (Homo sapiens) (UniProt Q8TDX7); conditions: Compound concentration 1000.0 nM
Chain of Serine/threonine-protein kinase Nek7 (Homo sapiens) (Q8TDX7 whole entry, looked up): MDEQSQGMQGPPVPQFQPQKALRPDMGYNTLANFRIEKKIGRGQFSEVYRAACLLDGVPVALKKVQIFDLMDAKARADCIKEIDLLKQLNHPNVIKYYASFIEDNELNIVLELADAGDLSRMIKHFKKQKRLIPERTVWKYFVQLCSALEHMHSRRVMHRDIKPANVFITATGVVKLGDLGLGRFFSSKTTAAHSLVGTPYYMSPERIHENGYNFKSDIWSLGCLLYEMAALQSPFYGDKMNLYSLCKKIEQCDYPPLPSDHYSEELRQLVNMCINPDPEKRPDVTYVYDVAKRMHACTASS

[16] = molecular target: Serine/threonine-protein kinase Nek9 (Homo sapiens) (UniProt Q8TD19); conditions: Compound concentration 1000.0 nM
[17] = molecular target: Tyrosine-protein kinase ABL2 (Homo sapiens) (UniProt P42684); conditions: Compound concentration 1000.0 nM
[18] = system: Mast/stem cell growth factor receptor Kit (Homo sapiens), P10721 [V559D]; conditions: Compound concentration 1000.0 nM
[19] = molecular target: Tyrosine-protein kinase receptor TYRO3 (Homo sapiens) (UniProt Q06418); conditions: Compound concentration 1000.0 nM
[20] = molecular target: Citron Rho-interacting kinase (Homo sapiens) (UniProt O14578); conditions: Compound concentration 1000.0 nM
[21] = molecular target: Serine/threonine-protein kinase Nek5 (Homo sapiens) (UniProt Q6P3R8); conditions: Compound concentration 1000.0 nM
Chain of Serine/threonine-protein kinase Nek5 (Homo sapiens) (Q6P3R8 whole entry): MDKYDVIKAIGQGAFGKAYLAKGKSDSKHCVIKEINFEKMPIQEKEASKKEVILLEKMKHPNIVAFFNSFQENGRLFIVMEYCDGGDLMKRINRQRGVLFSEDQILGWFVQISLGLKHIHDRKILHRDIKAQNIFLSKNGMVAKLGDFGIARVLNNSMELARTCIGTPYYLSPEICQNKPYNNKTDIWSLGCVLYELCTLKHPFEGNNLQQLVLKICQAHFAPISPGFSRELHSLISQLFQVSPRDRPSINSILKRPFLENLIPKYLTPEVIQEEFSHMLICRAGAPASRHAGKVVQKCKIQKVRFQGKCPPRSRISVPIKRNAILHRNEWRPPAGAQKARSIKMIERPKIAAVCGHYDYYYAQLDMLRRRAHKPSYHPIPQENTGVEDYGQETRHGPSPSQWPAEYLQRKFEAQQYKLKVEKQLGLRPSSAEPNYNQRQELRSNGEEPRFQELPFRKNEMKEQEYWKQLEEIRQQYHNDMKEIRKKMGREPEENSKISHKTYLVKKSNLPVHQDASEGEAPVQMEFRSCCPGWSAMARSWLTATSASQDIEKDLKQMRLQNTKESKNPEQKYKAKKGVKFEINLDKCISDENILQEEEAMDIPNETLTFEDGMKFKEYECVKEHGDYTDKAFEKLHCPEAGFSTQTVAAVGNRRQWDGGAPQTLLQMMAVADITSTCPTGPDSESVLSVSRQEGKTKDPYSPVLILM

[22] = molecular target: Maternal embryonic leucine zipper kinase (Homo sapiens) (UniProt Q14680); conditions: Compound concentration 1000.0 nM
[23] = molecular target: Serine/threonine-protein kinase tousled-like 1 (Homo sapiens) (UniProt Q9UKI8); conditions: Compound concentration 1000.0 nM
[24] = molecular target: Fibroblast growth factor receptor 1 (Homo sapiens) (UniProt P11362); conditions: Compound concentration 1000.0 nM
[25] = system: Mast/stem cell growth factor receptor Kit (Homo sapiens), P10721 [L576P]; conditions: Compound concentration 1000.0 nM
[26] = molecular target: Dual serine/threonine and tyrosine protein kinase (Homo sapiens) (UniProt Q6XUX3); conditions: Compound concentration 1000.0 nM
[27] = molecular target: Dual specificity mitogen-activated protein kinase kinase 1 (Homo sapiens) (UniProt Q02750); conditions: Compound concentration 1000.0 nM
Chain of Dual specificity mitogen-activated protein kinase kinase 1 (Homo sapiens) (Q02750 whole entry): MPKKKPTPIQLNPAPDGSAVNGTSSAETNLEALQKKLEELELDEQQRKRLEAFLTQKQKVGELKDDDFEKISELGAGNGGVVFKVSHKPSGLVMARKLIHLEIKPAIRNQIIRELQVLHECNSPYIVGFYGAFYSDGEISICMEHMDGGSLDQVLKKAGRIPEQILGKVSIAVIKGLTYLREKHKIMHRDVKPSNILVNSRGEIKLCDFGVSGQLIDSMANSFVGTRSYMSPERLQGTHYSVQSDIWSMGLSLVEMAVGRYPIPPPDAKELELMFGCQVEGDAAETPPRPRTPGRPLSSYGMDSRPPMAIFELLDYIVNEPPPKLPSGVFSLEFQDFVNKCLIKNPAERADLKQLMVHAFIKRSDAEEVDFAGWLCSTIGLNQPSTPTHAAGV

[28] = molecular target: Ribosomal protein S6 kinase alpha-5 (Homo sapiens) (UniProt O75582); conditions: Compound concentration 1000.0 nM
[29] = molecular target: cGMP-dependent protein kinase 2 (Homo sapiens) (UniProt Q13237); conditions: Compound concentration 1000.0 nM
Chain of cGMP-dependent protein kinase 2 (Homo sapiens) (Q13237 whole entry): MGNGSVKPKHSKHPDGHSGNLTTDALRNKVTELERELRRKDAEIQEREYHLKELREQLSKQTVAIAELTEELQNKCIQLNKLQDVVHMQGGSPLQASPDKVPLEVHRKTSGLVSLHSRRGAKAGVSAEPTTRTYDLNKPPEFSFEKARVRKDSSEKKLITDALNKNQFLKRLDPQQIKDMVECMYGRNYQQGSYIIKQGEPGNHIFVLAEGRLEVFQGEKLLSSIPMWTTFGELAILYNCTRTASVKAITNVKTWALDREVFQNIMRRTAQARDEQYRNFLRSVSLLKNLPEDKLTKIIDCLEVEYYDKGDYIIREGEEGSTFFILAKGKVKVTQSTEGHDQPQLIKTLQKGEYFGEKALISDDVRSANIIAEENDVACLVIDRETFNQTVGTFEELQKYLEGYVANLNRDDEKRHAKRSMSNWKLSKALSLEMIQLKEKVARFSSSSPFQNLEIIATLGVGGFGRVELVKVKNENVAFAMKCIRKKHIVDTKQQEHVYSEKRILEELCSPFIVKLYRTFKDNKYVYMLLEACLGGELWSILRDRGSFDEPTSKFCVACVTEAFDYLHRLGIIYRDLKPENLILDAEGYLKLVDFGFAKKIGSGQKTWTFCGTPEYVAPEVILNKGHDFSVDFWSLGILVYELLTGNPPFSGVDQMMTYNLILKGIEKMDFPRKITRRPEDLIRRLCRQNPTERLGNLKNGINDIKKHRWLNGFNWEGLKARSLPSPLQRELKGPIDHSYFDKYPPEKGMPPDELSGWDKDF

[30] = system: Fibroblast growth factor receptor 3 (Homo sapiens), P22607 [G697C]; conditions: Compound concentration 1000.0 nM
[31] = molecular target: Ephrin type-B receptor 4 (Homo sapiens) (UniProt P54760); conditions: Compound concentration 1000.0 nM
[32] = molecular target: Cyclin-dependent kinase 18 (Homo sapiens) (UniProt Q07002); conditions: Compound concentration 1000.0 nM
[33] = molecular target: 5-hydroxytryptamine receptor 1E (Homo sapiens) (UniProt P28566); conditions: Compound concentration 10.0 uM
[34] = molecular target: 5-hydroxytryptamine receptor 1D (Homo sapiens) (UniProt P28221); conditions: Compound concentration 10.0 uM
[35] = molecular target: Homeodomain-interacting protein kinase 3 (Homo sapiens) (UniProt Q9H422); conditions: Compound concentration 1000.0 nM
Chain of Homeodomain-interacting protein kinase 3 (Homo sapiens) (Q9H422 whole entry, looked up): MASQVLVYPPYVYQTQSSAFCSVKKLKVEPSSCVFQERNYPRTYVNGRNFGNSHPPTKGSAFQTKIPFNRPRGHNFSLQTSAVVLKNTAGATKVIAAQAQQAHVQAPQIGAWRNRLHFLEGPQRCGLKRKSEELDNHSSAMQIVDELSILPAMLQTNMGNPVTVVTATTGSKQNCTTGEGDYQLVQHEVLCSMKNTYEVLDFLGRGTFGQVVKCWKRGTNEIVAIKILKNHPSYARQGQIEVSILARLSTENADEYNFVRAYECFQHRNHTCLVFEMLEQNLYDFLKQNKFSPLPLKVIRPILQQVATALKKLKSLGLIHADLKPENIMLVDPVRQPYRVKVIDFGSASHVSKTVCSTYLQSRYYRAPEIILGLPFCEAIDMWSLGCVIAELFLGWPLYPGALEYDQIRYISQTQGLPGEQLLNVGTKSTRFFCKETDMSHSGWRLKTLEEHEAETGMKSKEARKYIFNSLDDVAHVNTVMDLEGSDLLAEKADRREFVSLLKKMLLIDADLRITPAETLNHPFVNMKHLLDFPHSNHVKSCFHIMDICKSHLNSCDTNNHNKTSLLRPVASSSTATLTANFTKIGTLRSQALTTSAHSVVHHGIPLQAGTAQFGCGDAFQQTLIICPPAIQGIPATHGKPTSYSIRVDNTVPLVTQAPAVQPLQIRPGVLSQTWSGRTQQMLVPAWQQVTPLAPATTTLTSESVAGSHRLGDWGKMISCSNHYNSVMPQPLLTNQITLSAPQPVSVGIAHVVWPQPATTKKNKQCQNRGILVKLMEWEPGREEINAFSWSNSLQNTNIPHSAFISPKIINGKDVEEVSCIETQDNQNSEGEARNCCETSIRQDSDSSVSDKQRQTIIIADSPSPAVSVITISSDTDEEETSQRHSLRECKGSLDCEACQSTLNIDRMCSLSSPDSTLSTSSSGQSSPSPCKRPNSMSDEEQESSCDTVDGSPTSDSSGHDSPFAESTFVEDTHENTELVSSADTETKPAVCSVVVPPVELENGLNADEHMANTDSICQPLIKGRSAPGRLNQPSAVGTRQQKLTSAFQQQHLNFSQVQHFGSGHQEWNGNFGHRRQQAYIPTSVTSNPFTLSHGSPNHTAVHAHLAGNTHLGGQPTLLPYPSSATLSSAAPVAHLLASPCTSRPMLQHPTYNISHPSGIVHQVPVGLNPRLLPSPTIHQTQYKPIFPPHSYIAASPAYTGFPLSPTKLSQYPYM

[36] = molecular target: SRSF protein kinase 2 (Homo sapiens) (UniProt P78362); conditions: Compound concentration 1000.0 nM
Chain of SRSF protein kinase 2 (Homo sapiens) (P78362 whole entry, looked up): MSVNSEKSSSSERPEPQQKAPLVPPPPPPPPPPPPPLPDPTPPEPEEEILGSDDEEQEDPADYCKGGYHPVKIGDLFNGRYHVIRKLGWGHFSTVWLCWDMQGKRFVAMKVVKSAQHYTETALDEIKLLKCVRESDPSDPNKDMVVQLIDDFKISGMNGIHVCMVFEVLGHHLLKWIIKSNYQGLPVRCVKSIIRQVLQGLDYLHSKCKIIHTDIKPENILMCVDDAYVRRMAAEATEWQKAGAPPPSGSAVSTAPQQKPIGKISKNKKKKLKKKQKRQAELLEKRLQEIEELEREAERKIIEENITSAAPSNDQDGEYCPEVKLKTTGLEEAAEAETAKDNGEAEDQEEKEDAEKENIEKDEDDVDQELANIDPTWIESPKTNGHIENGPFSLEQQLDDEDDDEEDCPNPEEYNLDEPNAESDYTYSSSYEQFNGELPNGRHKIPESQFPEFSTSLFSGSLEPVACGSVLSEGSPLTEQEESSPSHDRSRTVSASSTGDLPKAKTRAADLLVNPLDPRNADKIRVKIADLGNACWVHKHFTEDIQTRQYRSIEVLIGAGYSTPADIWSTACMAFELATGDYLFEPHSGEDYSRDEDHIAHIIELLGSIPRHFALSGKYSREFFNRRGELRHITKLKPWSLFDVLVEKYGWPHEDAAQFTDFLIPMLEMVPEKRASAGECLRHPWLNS

[37] = molecular target: GABA-A receptor; anion channel; experiment: GPCRScan assay: inhibition of GABAA/BZP; type: protein-complex assay, Rattus norvegicus; design: radioligand conc. used [nm] 0.6 – 4.0, parental cells brain tissue
[38] = system: ALK tyrosine kinase receptor (Homo sapiens), Q9UM73 [L1196M]; conditions: Compound concentration 1000.0 nM
[39] = molecular target: Serine/threonine-protein kinase PAK 6 (Homo sapiens) (UniProt Q9NQU5); conditions: Compound concentration 1000.0 nM
[40] = molecular target: Interferon-induced, double-stranded RNA-activated protein kinase (Homo sapiens) (UniProt P19525); conditions: Compound concentration 1000.0 nM
[41] = molecular target: Phosphatidylinositol 4,5-bisphosphate 3-kinase catalytic subunit alpha isoform (Homo sapiens) (UniProt P42336); conditions: Compound concentration 1000.0 nM
[42] = molecular target: Tyrosine-protein kinase Fer (Homo sapiens) (UniProt P16591); conditions: Compound concentration 1000.0 nM
[43] = molecular target: Serine/threonine-protein kinase 38 (Homo sapiens) (UniProt Q15208); conditions: Compound concentration 1000.0 nM
[44] = molecular target: Ribosomal protein S6 kinase alpha-6 (Homo sapiens) (UniProt Q9UK32); conditions: Compound concentration 1000.0 nM
[45] = molecular target: Serine/threonine-protein kinase 38-like (Homo sapiens) (UniProt Q9Y2H1); conditions: Compound concentration 1000.0 nM

Cc1nc(N2CC[C@@H](O)C2)ncc1-c1cc(C(F)(F)F)cc2[nH]ncc12 [TP-004]
residual activity [1]: 60% | residual activity [2]: 100% | residual activity [3]: 100% | residual activity [4]: 52% | residual activity [5]: 100% | residual activity [6]: 64% | residual activity [7]: 63% | residual activity [8]: 73% | residual activity [9]: 48% | residual activity [10]: 81% | residual activity [11]: 100% | IC50 [12]: 0.031 µM (active) | inhibition [13]: 7.79% | residual activity [14]: 100% | residual activity [15]: 97% | residual activity [16]: 96% | residual activity [17]: 60% | residual activity [18]: 58% | residual activity [19]: 66% | residual activity [20]: 82% | residual activity [21]: 100% | residual activity [22]: 100% | residual activity [23]: 100% | residual activity [24]: 90% | residual activity [25]: 69% | residual activity [26]: 88% | residual activity [27]: 83% | residual activity [28]: 100% | residual activity [29]: 100% | residual activity [30]: 90% | residual activity [31]: 100% | residual activity [32]: 100% | inhibition [33]: -5.65% | inhibition [34]: -8.55% | residual activity [35]: 54% | residual activity [36]: 100% | Ki [37]: 4.54 µM | residual activity [38]: 98% | residual activity [39]: 100% | residual activity [40]: 100% | residual activity [41]: 100% | residual activity [42]: 97% | residual activity [43]: 95% | residual activity [44]: 51% | residual activity [45]: 87%
